One data set concerns RCC IV. In words: RCC IV activity in submitochondrial particles. The class given is biochemical, rat. Details: key to RCC IV at 50XCmax / RCC IV at 100XCmax: activity relative to DMSO-treated controls (control set as 1 = 100%). Particulars: for RCC IV at 50XCmax: in %; for RCC activity IV: 15 min, DMSO-treated = 100. The essentials:
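Rat submitochondrial particles (1 mg/ml) were treated with test compounds for 15 min. RCC IV, like RCC III, was monitored at 550 nm every 10 s for 2 min, and RCC I/V at 340 nm each minute for 6 min. DMSO samples defined unit activity.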

Data set [1] concerns isolated rat liver mitochondria. In words: Mitochondrial swelling (absorbance at 535 nm). On Swelling 5XCmax: key: 0 indicates that the drug had no effects (negative). The class given is biochemical. Particulars: for Swelling 1XCmax / Swelling 2.5XCmax / Swelling 5XCmax / Swelling 10XCmax / Swelling 20XCmax / Swelling 30XCmax / Swelling 50XCmax / Swelling 100XCmax: difference in signal between KI and DMSO treated samples at the end of experiments.
The conditions of data set [2]: cited from earlier work; for labeling for DILI: W&P warnings and precautions, BBW black box warnings.
The conditions of data set [3]: ref product labeling, cited from earlier work.
Details of data set [4]: method as in product labeling. Particulars: ref product labeling, cited from earlier work; for Labeling for cardiotoxicity: BBW: black box warning, W&P: Warnings and Precautions.
[5] abbreviates: 1 DILI positive, 0 negative according to labeling, ref product labeling.
Where [6] appears, read: BBW: black box warning, W&P: Warnings and Precautions, ref product labeling.
The mark [7] stands for this setting: relative to DMSO treated samples.
Where [8] appears, read: 1 = DILI positive, 0 = negative, ref product labeling.

SMILES strings stand for the structures. Like-named read-outs stand apart in the source and are kept apart here.

Consider `COc1cc2nccc(Oc3ccc(NC(=O)NC4CC4)c(Cl)c3)c2cc1C(N)=O` [Lenvatinib], for which the “RCC IV at 50XCmax” value in the data set on RCC IV (DMSO treated samples set as 1) is reported as 0. Also, in data set [1], the “Swelling 1XCmax” value is 0, the “Swelling 2.5XCmax” value is recorded as 0, the “Swelling 5XCmax” value is reported as 0 and the “Swelling 10XCmax” value is 0. In data set [1], the “Swelling 20XCmax” value is 0, the “Swelling 30XCmax” value was determined as 0, the “Swelling 50XCmax” value is given as 0 and the “Swelling 100XCmax” value worked out at 0.

For `O=C(c1ccc(F)c(F)c1Nc1ccc(I)cc1F)N1CC(O)([C@@H]2CCCCN2)C1` [Cobimetinib], the “RCC IV at 50XCmax” value in the data set on RCC IV (DMSO treated samples set as 1) came to 0. Further, in data set [1], the “Swelling 1XCmax” value was found to be 0, the “Swelling 2.5XCmax” value amounted to 0, the “Swelling 5XCmax” value stood at 0 and the “Swelling 10XCmax” value is listed as 0. Further, in data set [1], the “Swelling 20XCmax” value turned out to be 0, the “Swelling 30XCmax” value stood at 0, the “Swelling 50XCmax” value is reported as 0 and the “Swelling 100XCmax” value came to 0. The “DILI potential (based on labeling)” value in data set [2] (setting [5]) is reported as 1. The “Labeling for DILI” value in data set [2] (setting [6]) is on record as “W&P: ALT↑”. In addition, in data set [2] (ref FDA product labeling), the “labeling for DILI” value is on record as “W&P: ALT↑/monitoring” and the “DILI potential (based on labeling)” value is 1. Also, the Labeling for cardiotoxicity entry in data set [3] (BBW: black box warning, W&P: Warnings and Precautions) was “W&P: Cardiomyopathy”. Moreover, the “Potential for cardiotoxicity (based on labeling)” value (“Potential for cardiotoxicity” below) in data set [3] is recorded as 1.

`COC(=O)c1ccc2c(c1)NC(=O)/C2=C(\Nc1ccc(N(C)C(=O)CN2CCN(C)CC2)cc1)c1ccccc1` [Nintedanib]: in the data set on RCC IV (DMSO treated samples set as 1), the “RCC IV at 50XCmax” value is 0. For the same compound, in data set [1], the “Swelling 1XCmax” value is given as 0, the “Swelling 2.5XCmax” value was 0, the “Swelling 5XCmax” value was 0 and the “Swelling 10XCmax” value was 0. Also, in data set [1], the “Swelling 20XCmax” value stood at 0, the “Swelling 30XCmax” value is reported as 0, the “Swelling 50XCmax” value was found to be 0 and the “Swelling 100XCmax” value was found to be 0. In addition, in data set [2] (setting [5]), the “DILI potential (based on labeling)” value was 1. In addition, the “Labeling for DILI” value in data set [2] (setting [6]) is listed as “W&P: ALT↑”. Besides, in data set [2] (ref FDA product labeling), the “labeling for DILI” value is given as “W&P: ALT↑/monitoring” and the “DILI potential (based on labeling)” value is 1. Further, the “Potential for cardiotoxicity” value in data set [3] is recorded as 0.

For `Cc1nc(Nc2ncc(C(=O)Nc3c(C)cccc3Cl)s2)cc(N2CCN(CCO)CC2)n1` [dasatinib (free base)], in the data set with RCC IV (setting [7]), the “RCC IV at 50XCmax” value was 0. Besides, in data set [1], the “Swelling 1XCmax” value came to 0, the “Swelling 2.5XCmax” value amounted to 0, the “Swelling 5XCmax” value is given as 0 and the “Swelling 10XCmax” value is listed as 0. Moreover, in data set [1], the “Swelling 20XCmax” value is on record as 0, the “Swelling 30XCmax” value is given as 0, the “Swelling 50XCmax” value stood at 0 and the “Swelling 100XCmax” value stood at 0. Moreover, in data set [4], the Labeling for cardiotoxicity entry is “W&P: Cardiovascular events;QT Interval Prolongation” and the “Potential for cardiotoxicity” value is recorded as 1. In data set [2] (setting [8]), the “DILI potential (based on labeling)” value was 0.

As for `N#CC[C@H](C1CCCC1)n1cc(-c2ncnc3[nH]ccc23)cn1` [ruxolitinib phosphate], the “RCC IV at 50XCmax” value with RCC IV (setting [7]) was 0. In addition, in data set [1], the “Swelling 1XCmax” value was found to be 0, the “Swelling 2.5XCmax” value was 0, the “Swelling 5XCmax” value is on record as 0 and the “Swelling 10XCmax” value is reported as 0. Further, in data set [1], the “Swelling 20XCmax” value is reported as 0, the “Swelling 30XCmax” value came to 0, the “Swelling 50XCmax” value worked out at 0 and the “Swelling 100XCmax” value was found to be 0. In addition, the “Potential for cardiotoxicity” value in data set [4] is on record as 0. In addition, the “DILI potential (based on labeling)” value in data set [2] (setting [8]) is 0.

Take `CN(C)C/C=C/C(=O)Nc1cc2c(Nc3ccc(F)c(Cl)c3)ncnc2cc1O[C@H]1CCOC1` [afatinib dimaleate]: the “RCC IV at 50XCmax” value in the data set with RCC IV (DMSO treated samples set as 1) is recorded as 0. In data set [1], the “Swelling 1XCmax” value was determined as 0, the “Swelling 2.5XCmax” value stood at 0, the “Swelling 5XCmax” value came to 0 and the “Swelling 10XCmax” value is 0. In data set [1], the “Swelling 20XCmax” value came to 0, the “Swelling 30XCmax” value was found to be 0, the “Swelling 50XCmax” value worked out at 0 and the “Swelling 100XCmax” value was 0. Further, in data set [2] (setting [5]), the “DILI potential (based on labeling)” value was 1. Besides, the “Labeling for DILI” value in data set [2] (setting [6]) was “W&P: ALT↑”. The “Potential for cardiotoxicity” value in data set [3] is recorded as 0.

Turning to `COc1cc(Nc2c(C#N)cnc3cc(OCCCN4CCN(C)CC4)c(OC)cc23)c(Cl)cc1Cl` [Bosutinib], the “RCC IV at 50XCmax” value with RCC IV (setting [7]) worked out at 0. Also, the “RCC activity IV” value in the data set with RCC IV (100-fold Cmax) was 101.25 ± 2.26 % of control. For the same compound, in data set [1], the “Swelling 1XCmax” value is 0, the “Swelling 2.5XCmax” value worked out at 0, the “Swelling 5XCmax” value stood at 0 and the “Swelling 10XCmax” value turned out to be 0. Further, in data set [1], the “Swelling 20XCmax” value came out at 0, the “Swelling 30XCmax” value came to 0, the “Swelling 50XCmax” value stood at 0 and the “Swelling 100XCmax” value amounted to 0. The “Potential for cardiotoxicity” value in data set [4] is listed as 0. Also, the “DILI potential (based on labeling)” value in data set [2] (setting [8]) is 1. In addition, the “Labeling for DILI” value in data set [2] (setting [6]) was “W&P: ALT↑”. For the same compound, in data set [2] (ref FDA product labeling), the “labeling for DILI” value is “W&P: ALT↑/monitoring” and the “DILI potential (based on labeling)” value is given as 1.

In the case of `CCN(CC)CCNC(=O)c1c(C)[nH]c(/C=C2\C(=O)Nc3ccc(F)cc32)c1C` [sunitinib malate], in the data set with RCC IV (setting [7]), the “RCC IV at 50XCmax” value worked out at 0. In data set [1], the “Swelling 1XCmax” value was determined as 0, the “Swelling 2.5XCmax” value is given as 0, the “Swelling 5XCmax” value was 0 and the “Swelling 10XCmax” value was determined as 0. Further, in data set [1], the “Swelling 20XCmax” value is listed as 0, the “Swelling 30XCmax” value was 0, the “Swelling 50XCmax” value came out at 0 and the “Swelling 100XCmax” value came out at 0. Also, in data set [4], the Labeling for cardiotoxicity entry is “W&P: Cardiovascular events;QT Interval Prolongation and Torsade de Pointes”; the “Potential for cardiotoxicity” value is given as 1. In data set [2] (setting [8]), the “DILI potential (based on labeling)” value is on record as 1. In addition, in data set [2] (in vivo), the “Labeling for DILI” value was “BBW: fatal DILI”.

Regarding `COc1cc2c(Nc3ccc(Br)cc3F)ncnc2cc1OCC1CCN(C)CC1` [Vandetanib], the “RCC activity IV” value in the data set on RCC IV (50-fold Cmax) is 100.56 ± 2.67 % of control. In the data set with RCC IV (setting [7]), the “RCC IV at 50XCmax” value is on record as 0. Further, the “RCC activity IV” value with RCC IV (100-fold Cmax) is reported as 103.06 ± 12.96 % of control. Besides, in data set [1], the “lowest concentration causing mitochondrial swelling” value was 100 fold Cmax, the “Swelling 1XCmax” value came out at 0, the “Swelling 2.5XCmax” value was 0 and the “Swelling 5XCmax” value is listed as 0. Further, in data set [1], the “Swelling 10XCmax” value turned out to be 0, the “Swelling 20XCmax” value is recorded as 0, the “Swelling 30XCmax” value is 0 and the “Swelling 50XCmax” value is 0. Besides, in data set [1], the “Swelling 100XCmax” value worked out at 0.22±0.06. Also, the “effect on mitochondrial swelling” value in data set [1] (up to 100-fold Cmax or highest testable concentration, 25 µM calcium chloride) is listed as “significant mitochondrial swelling”. For the same compound, in data set [4], the Labeling for cardiotoxicity entry is on record as “BBW” and the “Potential for cardiotoxicity” value was 1. In addition, the “DILI potential (based on labeling)” value in data set [2] (setting [8]) is given as 0. For the same compound, in data set [2] (ref FDA product labeling), the “DILI potential (based on labeling)” value is recorded as 0.

With `CCCS(=O)(=O)Nc1ccc(F)c(C(=O)c2c[nH]c3ncc(-c4ccc(Cl)cc4)cc23)c1F` [Vemurafenib], in the data set on RCC IV (setting [7]), the “RCC IV at 50XCmax” value was 0. In data set [1], the “Swelling 1XCmax” value worked out at 0, the “Swelling 2.5XCmax” value came to 0, the “Swelling 5XCmax” value came out at 0 and the “Swelling 10XCmax” value amounted to 0. In data set [1], the “Swelling 20XCmax” value is on record as 0, the “Swelling 30XCmax” value was found to be 0, the “Swelling 50XCmax” value stood at 0 and the “Swelling 100XCmax” value is given as 0. Also, in data set [4], the Labeling for cardiotoxicity result is recorded as “W&P: QT Prolongation” and the “Potential for cardiotoxicity” value is reported as 1. The “DILI potential (based on labeling)” value in data set [2] (setting [8]) was 1. Also, the “Labeling for DILI” value in data set [2] (setting [6]) is “W&P: functional hepatic impairment”. In addition, in data set [2] (ref FDA product labeling), the “labeling for DILI” value is reported as “W&P: hepatic impairment/ALT monitoring” and the “DILI potential (based on labeling)” value is recorded as 1.

`CNC(=O)c1ccccc1Sc1ccc2c(/C=C/c3ccccn3)n[nH]c2c1` [Axitinib]: the “RCC IV at 50XCmax” value in the data set with RCC IV (setting [7]) is on record as 0. In addition, in data set [1], the “Swelling 1XCmax” value was 0, the “Swelling 2.5XCmax” value was 0, the “Swelling 5XCmax” value is reported as 0 and the “Swelling 10XCmax” value came to 0. In addition, in data set [1], the “Swelling 20XCmax” value was 0, the “Swelling 30XCmax” value is reported as 0, the “Swelling 50XCmax” value was 0 and the “Swelling 100XCmax” value was 0. Moreover, in data set [4], the Labeling for cardiotoxicity result is listed as “W&P: Cardiac Failure” and the “Potential for cardiotoxicity” value was 1. For the same compound, in data set [2] (setting [8]), the “DILI potential (based on labeling)” value is listed as 1. Besides, in data set [2] (setting [6]), the “Labeling for DILI” value is listed as “W&P: ALT↑”. Besides, in data set [2] (ref FDA product labeling), the “labeling for DILI” value was “W&P: ALT↑/monitoring” and the “DILI potential (based on labeling)” value is on record as 1.

(Values after PMC5515969, “Effects of 31 FDA approved small-molecule kinase inhibitors on isolated rat liver mitochondria” (Archives of Toxicology, 2016).)
